Here are results for twelve compounds from patent US20150057246A1, “SILYL-CONTAINING HETEROCYCLIC COMPOUNDS AND METHODS OF USE THEREOF FOR THE TREATMENT OF VIRAL DISEASES” (priority 2012, published 2015).

What is called EC90 is the point of the concentration-response curve where the effect stands at 90%.

One test has as its system HCV 1a replicon. The test is described as follows: Cell-based HCV replicon assay (TaqMan), genotype 1a replicon. The settings on record: HCV genotype 1a replicon cells, replicon RNA by real time PCR, day 3, EC90 = concentration for ΔCT=3.2 over baseline. On the procedure:
(§1) Measurement of inhibition by compounds of the present invention was performed using the HCV replicon system. Several different replicons encoding different HCV genotypes or mutations were used. In addition, potency measurements were made using different formats of the replicon assay, including different ways of measurements and different plating formats. See Jan M. Vrolijk et al., A replicons-based bioassay for the measurement of interferons in patients with chronic hepatitis C, 110 J. VIROLOGICAL METHODS 201 (2003); Steven S. Carroll et al., Inhibition of Hepatitis C Virus RNA Replication by 2′-Modified Nucleoside Analogs, 278(14) J. BIOLOGICAL CHEMISTRY 11979 (2003). However, the underlying principles are common to all of these determinations, and are outlined below.
(§2) TaqMan®-Based Assay Protocol:
(§3) Compounds of the present invention were assayed for cell-based anti-HCV activity using the following protocol. Replicon cells were seeded at 5000 cells/well in 96-well collagen I-coated Nunc plates in the presence of the test compound. Various concentrations of test compound, typically in 10 serial 2-fold dilutions, were added to the assay mixture, with the starting concentration ranging from 250 μM to 1 μM. The final concentration of DMSO was 0.5%, fetal bovine serum was 5%, in the assay media. Cells were harvested on day 3 by the addition of 1× cell lysis buffer (Ambion cat #8721). The replicon RNA level was measured using real time PCR (TaqMan® assay). The amplicon was located in 5B. The PCR primers were: 5B.2F, ATGGACAGGCGCCCTGA (SEQ. ID NO. 1); 5B.2R, […] (SEQ. ID NO. 2); the probe sequence was FAM-labeled CACGCCATGCGCTGCGG (SEQ. ID NO. 3). GAPDH RNA was used as endogenous control and was amplified in the same reaction as NS5B (multiplex PCR) using primers and VIC-labeled probe recommended by the manufacturer (PE Applied Biosystem). The real-time […] reactions were run on ABI PRISM 7900HT Sequence Detection System using the following program: 48° C. for 30 minutes, 95° C. for 10 minutes, 40 cycles of 95° C. for 15 sec, 60° C. for 1 minute. The ΔCT values (CT5B-CTGAPDH) were plotted against the concentration of test compound and fitted to the sigmoid dose-response model using XLfit4 (MDL). EC50 was defined as the concentration of inhibitor necessary to achieve ΔCT=1 over the projected baseline; EC90 the concentration necessary to achieve ΔCT=3.2 over the baseline. Alternatively, to quantitate the absolute amount of replicon RNA, a standard curve was established by including serially diluted T7 transcripts of replicon RNA in the Taqman assay. All TaqMan® reagents were from PE Applied Biosystems. Such an assay procedure was described in detail in e.g. Malcolm et al., Antimicrobial Agents and Chemotherapy 50: 1013-1020 (2006).
(§4) HCV replicon EC50 assay data for various replicons and mutants was calculated for selected compounds of the present invention using this method and is provided in the tables above herein.

A further test concerns HCV 1a Y93H replicon. The test is described as follows: Cell-based HCV replicon assay (TaqMan), 1a Y93H mutant replicon. The settings on record: Hepatitis C virus, 72 h, read-out: 1a Y93H EC90, HCV 1a Y93H mutant replicon cells, replicon RNA by real time PCR, day 3; EC90 = concentration for ΔCT=3.2 over baseline. The procedure:
as §1, §2, §3, §4
In general terms: A replicon is a self-replicating genome or part of one, used to study replication in cells.

The test system of the next test is HCV 2b replicon. The test is described as follows: Cell-based HCV replicon assay (TaqMan), genotype 2b replicon. The note with it: EC90 = concentration for ΔCT=3.2 over baseline. The procedure:
as §1, §2, §3, §4

The mark [1] stands for this setting: Hepatitis C virus, 72 h, read-out: 2b EC90, HCV genotype 2b replicon cells, replicon RNA by real time PCR, day 3.

Read-outs that look alike come from different tables or passages of the source.

As to `COC(=O)N[C@H](C(=O)N1C[Si](C)(C)C[C@H]1c1nc2ccc3cc(-c4ccc(-c5cnc([C@@H]6CCCN6C(=O)[C@@H](NC(=O)OC)[C@@H](C)OC)[nH]5)cc4)ccc3c2[nH]1)C(C)C` [Compound 89], the EC90 in the test on HCV 1a replicon (Hepatitis C virus, 72 h) was 0.28 nM; with HCV 1a Y93H replicon it was over 1000 nM; with HCV 2b replicon (setting [1]), over 1000 nM.
Consider `COC(=O)N[C@H](C(=O)N1CCC[C@H]1c1ncc(-c2ccc(-c3ccc4c(ccc5nc([C@@H]6C[Si](C)(C)CN6C(=O)[C@@H](NC(=O)OC)C(C)OC)[nH]c54)c3)cc2)[nH]1)C(C)OC` (stereo partly drawn) [Compound 19], for which the EC90 in the test on HCV 1a replicon (Hepatitis C virus, 72 h) was 0.036 nM; with HCV 1a Y93H replicon, over 100 nM; in the test with HCV 2b replicon (setting [1]), over 100 nM.
As for `COC(=O)N[C@@H](Cn1ncnn1)C(=O)N1C[Si](C)(C)C[C@H]1c1ncc(-c2ccc(-c3ccc4c(ccc5nc([C@@H]6CCCN6C(=O)[C@H](Cn6ncnn6)NC(=O)OC)[nH]c54)c3)cc2)[nH]1` [Compound 38], the EC90 is 2.57 nM in the test on HCV 1a replicon (Hepatitis C virus, 72 h); over 1000 nM in the test on HCV 1a Y93H replicon; 408 nM in the test with HCV 2b replicon (setting [1]).
The corresponding values for `COC(=O)N[C@@H](CO)C(=O)N1CCC[C@H]1c1ncc(-c2ccc(-c3ccc4c(ccc5nc([C@@H]6C[Si](C)(C)CN6C(=O)[C@@H](NC(=O)OC)C(C)C)[nH]c54)c3)cc2)[nH]1` [Compound 90] are 0.56 nM, over 1000 nM and over 1000 nM.
The matching figures for `COC(=O)N[C@@H](Cc1ccccc1)C(=O)N1C[Si](C)(C)C[C@H]1c1ncc(-c2ccc(-c3ccc4c(ccc5nc([C@@H]6CCCN6C(=O)[C@H](Cc6ccccc6)NC(=O)OC)[nH]c54)c3)cc2)[nH]1` [Compound 46]: 4.75 nM, over 1000 nM and over 1000 nM.
The corresponding values for `COC(=O)N[C@@H](Cc1cn(C)cn1)C(=O)N1C[Si](C)(C)C[C@H]1c1ncc(-c2ccc(-c3ccc4c(ccc5nc([C@@H]6CCCN6C(=O)[C@H](Cc6cn(C)cn6)NC(=O)OC)[nH]c54)c3)cc2)[nH]1` [Compound 40] are 2.57 nM, over 1000 nM and over 1000 nM.
For `COC(=O)N[C@H](C(=O)N1C[Si](C)(C)C[C@H]1c1nc2ccc3cc(-c4ccc(-c5[nH]c([C@@H]6C[C@H]7C[C@H]7N6C(=O)[C@@H](NC(=O)OC)C6CCOCC6)nc5Cl)cc4)ccc3c2[nH]1)C1CCOCC1` [Compound 103], the EC90 with HCV 1a replicon (Hepatitis C virus, 72 h) was determined as 0.082 nM; with HCV 1a Y93H replicon, 16.1 nM; in the test on HCV 2b replicon (setting [1]), 2.85 nM.
The matching figures for `COC(=O)N[C@H](C(=O)N1CCC[C@H]1c1ncc(-c2ccc(-c3ccc4c(ccc5nc([C@@H]6C[Si](C)(C)CN6C(=O)[C@@H](NC(=O)OC)C6CCCC6)[nH]c54)c3)cc2)[nH]1)C(C)C` [Compound 58]: 0.45 nM, 580 nM and 265 nM.
The matching figures for `COC(=O)N[C@H](C)C(=O)N1C[Si](C)(C)C[C@H]1c1ncc(-c2ccc(-c3ccc4c(ccc5nc([C@@H]6CCCN6C(=O)[C@@H](C)NC(=O)OC)[nH]c54)c3)cc2)[nH]1` [Compound 49]: 386 nM, over 1000 nM and over 1000 nM.
For the compound `CC[C@H](C)[C@H](NC(=O)OC)C(=O)N1C[Si](C)(C)C[C@H]1c1ncc(-c2ccc(-c3ccc4c(ccc5nc([C@@H]6CCCN6C(=O)[C@@H](NC(=O)OC)[C@@H](C)CC)[nH]c54)c3)cc2)[nH]1` [Compound 41], the EC90 in the test on HCV 1a replicon worked out at 0.19 nM; with HCV 1a Y93H replicon it was 614 nM; with HCV 2b replicon (read-out: 2b EC90, HCV genotype 2b replicon cells, replicon RNA by real time PCR, day 3) it was 271 nM.
For the compound `COC(=O)N[C@@H](Cc1cn(C)cn1)C(=O)N1C[Si](C)(C)C[C@H]1c1nc2ccc3cc(-c4ccc(-c5cnc([C@@H]6CCCN6C(=O)[C@@H](NC(=O)OC)C(C)C)[nH]5)cc4)ccc3c2[nH]1` [Compound 65], the concentration for an effect of 90% (EC90) came to 0.36 nM in the test on HCV 1a replicon (Hepatitis C virus, 72 h); 564 nM with HCV 1a Y93H replicon; 308 nM in the test with HCV 2b replicon (setting [1]).
The corresponding values for `COC(=O)N[C@H](C(=O)N1C[Si](C)(C)C[C@H]1c1nc2ccc3cc(-c4ccc(-c5cnc([C@@H]6CCCN6C(=O)[C@@H](NC(=O)OC)C6CC6)[nH]5)cc4)ccc3c2[nH]1)C(C)C` [Compound 82] are 0.24 nM, 659 nM and 154 nM.
